Measurements reported in US12305177B2, “Methods and platforms for sustainable high yield terpenoid production” (Purdue Research Foundation, priority 2019, dated 2025).

Assays:
[1] = biological target: T1, A. thaliana Nudx1 (Arabidopsis thaliana, UniProt Q9CA40); assay: Phosphatase activity / steady-state kinetics of recombinant AtNudx1 (BIOMOL Green phosphate detection); assay type: biochemical; conditions: for Km / kcat: substrate of AtNudx1, 100 mM TAPS pH 8.5, 10 mM MgCl2, 37° C., means ± SD, n = 3
T1 construct: The open reading frames (ORFs) of Arabidopsis Nudix genes were PCR-amplified from cDNA; His8 (N, cleaved yes); made in house; host or cells: E. coli BL21(DE3)
T1 sequence (Q9CA40 whole entry): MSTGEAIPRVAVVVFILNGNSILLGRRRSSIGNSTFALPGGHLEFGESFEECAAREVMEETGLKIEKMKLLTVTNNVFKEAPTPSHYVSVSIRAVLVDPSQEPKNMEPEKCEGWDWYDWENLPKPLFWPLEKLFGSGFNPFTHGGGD
Procedure: (§1) After removal of the cell debris by centrifugation, expressed proteins were purified from the supernatants by immobilized metal-affinity chromatography with HisPur Ni-NTA resin (ThermoFisher Scientific). Pure proteins were eluted with 50 mM Tris-HCL pH 8.0, 0.5 M NaCl buffer supplemented with 250 mM imidazole followed by buffer exchange to 50 mM Tris-HCl pH 8.0 and 0.2 M NaCl for storage. For the crystal screening and steady-state kinetic analysis described below, the N-terminal His8-tags of AtNudx1 and AtNudx3 were removed with thrombin and remaining histidine-tagged protein was removed by passing over HisPur Ni-NTA resin. AtNudx1 and AtNudx3 were further purified by size-exclusion chromatography on a Superdex 200 16/60 column (GE Lifesciences) equilibrated and eluted with 50 mM Tris-HCl pH 8.0 supplemented with 0.2 M NaCl and 2 mM dithiothreitol.
(§2) All enzyme assays described in the present disclosure were performed as follows. Phosphatase activity was monitored at 37° C. using BIOMOL Green reagent (Enzo Life Sciences) to detect and quantify released phosphate at 623 nm using a phosphate standard curve. The optimum pH for activity was determined using a three-component buffer system of 50 mM acetic acid, 50 mM MES, and 100 mM Tris-HCl with 0.1 mM IPP as substrate. Magnesium ion dependence was investigated with 1 mM to 20 mM MgCl2. […] Reactions were initiated by the addition of enzyme and quenched by the addition of BIOMOL Green.
(§3) Controls included assays without enzyme and without substrate. All enzyme assays were performed at an appropriate enzyme concentration so that the reaction velocity was linear and proportional to the enzyme concentration during the incubation time period. Kinetic data was fitted using Prism (GraphPad Software) to the Michaelis-Menten equation to compute KM and kcat. At least triplicate assays were performed for all data points. Resulting Findings and Systems, Methods, and Platforms

[2] = biological target: T2, A. thaliana Nudx3 (Arabidopsis thaliana, UniProt Q8L831); assay: Phosphatase activity / steady-state kinetics of recombinant AtNudx3 (BIOMOL Green phosphate detection); assay type: biochemical; conditions: for Km / kcat: substrate of AtNudx3, 100 mM TAPS pH 8.5, 10 mM MgCl2, 37° C., means ± SD, n = 3
T2 construct: His8 (N, cleaved yes); made in house; host or cells: E. coli BL21(DE3)
T2 sequence (Q8L831 1-772): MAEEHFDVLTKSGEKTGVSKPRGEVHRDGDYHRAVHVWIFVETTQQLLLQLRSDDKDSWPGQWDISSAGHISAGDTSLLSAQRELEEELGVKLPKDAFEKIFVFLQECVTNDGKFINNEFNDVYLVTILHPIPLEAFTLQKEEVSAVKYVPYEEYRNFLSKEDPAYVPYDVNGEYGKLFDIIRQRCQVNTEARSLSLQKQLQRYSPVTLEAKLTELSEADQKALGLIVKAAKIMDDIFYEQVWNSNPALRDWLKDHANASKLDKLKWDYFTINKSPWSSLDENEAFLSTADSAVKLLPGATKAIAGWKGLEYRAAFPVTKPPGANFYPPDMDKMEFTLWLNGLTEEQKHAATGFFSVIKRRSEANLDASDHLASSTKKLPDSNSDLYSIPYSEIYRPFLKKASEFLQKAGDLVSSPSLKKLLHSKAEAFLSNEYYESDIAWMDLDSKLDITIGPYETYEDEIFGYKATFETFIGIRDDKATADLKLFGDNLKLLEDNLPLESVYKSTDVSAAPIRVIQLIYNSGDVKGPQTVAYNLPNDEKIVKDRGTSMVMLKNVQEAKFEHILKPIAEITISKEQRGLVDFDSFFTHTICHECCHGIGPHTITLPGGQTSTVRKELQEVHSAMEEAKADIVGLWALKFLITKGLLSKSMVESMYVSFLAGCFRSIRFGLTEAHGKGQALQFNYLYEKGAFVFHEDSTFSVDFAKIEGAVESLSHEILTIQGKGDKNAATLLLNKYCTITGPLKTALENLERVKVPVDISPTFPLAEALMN
Procedure: as §1, §2, §3

[3] = tested on: FPP synthase; conditions: cited from earlier work
[4] = biological target: T3, AtPMK (Arabidopsis thaliana, UniProt Q9C6T1); conditions: substrate of Arabidopsis PMK (AtPMK, At1g31910); previous characterization; cited from earlier work
T3 sequence (Q9C6T1 1-505): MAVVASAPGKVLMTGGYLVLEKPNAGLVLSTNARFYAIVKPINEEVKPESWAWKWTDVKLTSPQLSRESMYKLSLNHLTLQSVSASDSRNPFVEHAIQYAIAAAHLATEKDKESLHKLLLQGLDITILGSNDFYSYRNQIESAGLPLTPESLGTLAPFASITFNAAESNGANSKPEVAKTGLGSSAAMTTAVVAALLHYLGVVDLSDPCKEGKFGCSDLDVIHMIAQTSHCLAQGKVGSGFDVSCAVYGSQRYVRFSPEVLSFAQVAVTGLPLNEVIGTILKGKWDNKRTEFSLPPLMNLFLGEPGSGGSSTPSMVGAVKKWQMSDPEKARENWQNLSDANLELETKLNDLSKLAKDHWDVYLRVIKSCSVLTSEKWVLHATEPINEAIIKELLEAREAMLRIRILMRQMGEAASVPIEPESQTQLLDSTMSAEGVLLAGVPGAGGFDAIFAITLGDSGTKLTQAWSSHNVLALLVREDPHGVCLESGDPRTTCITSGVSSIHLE

Compound	Km [1]	kcat [1]	phosphatase activity with the compound as substrate ([2]; AtNudx3)	phosphatase activity with the compound as substrate ([1]; AtNudx1)	Km [2]	kcat [2]	also measured
Nc1nc2c([nH]c(=O)n2[C@H]2C[C@H](O)[C@@H](COP(=O)(O)OP(=O)(O)OP(=O)(O)O)O2)c(=O)[nH]1 [8-oxo-dGTP]	33 ± 2 µM	4.5 ± 0.1 s⁻¹	unable to dephosphorylate				
CC(C)=CCOP(=O)(O)O [DMAP, dimethylallyl phosphate]			No phosphatase activity was detected	No phosphatase activity was detected			inhibition of FPP synthase [3]: competitively inhibited
CC(C)=CCC/C(C)=C/CC/C(C)=C/COP(=O)(O)O [FP, farnesyl phosphate]			No phosphatase activity was detected	No phosphatase activity was detected			
CC(C)=CCC/C(C)=C/COP(=O)(O)O [GP, geranyl phosphate]			No phosphatase activity was detected	No phosphatase activity was detected			
CC(C)=CCC/C(C)=C/COP(=O)(O)OP(=O)(O)O [GPP, geranyl diphosphate]	8.3 ± 2.5 µM	2.0 ± 0.3 s⁻¹			53 ± 13 µM	2.7 ± 0.3 s⁻¹	
C=C(C)CCOP(=O)(O)OP(=O)(O)O [IPP, isopentenyl diphosphate]	8 ± 0.6 µM	1.11 ± 0.02 s⁻¹			36 ± 8 µM	5.5 ± 0.3 s⁻¹	fold lower specific activity at pH 6.5 than at the optimal pH of 8.5 ([1]; AtNudx1, IPP as substrate, 37° C.): 7 fold; fold higher catalytic efficiency ([2]; AtNudx3, compared to GPP and FPP as substrates): 3 fold
C[C@@](O)(CCOP(=O)(O)O)CC(=O)O [MVAP, phosphomevalonate]			No phosphatase activity was detected	No phosphatase activity was detected			Km [4]: 12 µM
mevalonate diphosphate [(R)-MVAPP]	240 ± 60 µM	0.51 ± 0.06 s⁻¹			125 ± 36 µM	1.5 ± 0.2 s⁻¹	fold less efficient as a substrate (catalytic efficiency) ([1]; AtNudx1, compared with IPP, DMAPP, GPP and FPP): 100 fold
